# Experiments:
# Type in all cases: cell-based, human
# Ishikawa cell line = assay: CellTiter-Glo (CTG) luminescent cell viability assay, Ishikawa cells; conditions: for IC50: Ishikawa endometrial adenocarcinoma cells, CTG viability
# Procedure: (§1) This compound was evaluated against three types of cancer cells: Ishikawa, MDA-MB-231, and MCF-7 using the CellTiter-Glo (CTG) luminescent cell viability assay. Ishikawa cell line is an endometrial adenocarcinoma isolated from a person. MDA-MB-231 is a triple negative breast cancer cell line isolated from a person. MCF-7 is an estrogen receptor positive breast cancer cell line isolated from a person.
# MCF-7 cell line = assay: CellTiter-Glo (CTG) luminescent cell viability assay, MCF-7 cells; conditions: for IC50: MCF-7 estrogen receptor positive breast cancer cells, CTG viability
# Procedure: as §1
# MDA-MB-231 cell line = assay: CellTiter-Glo (CTG) luminescent cell viability assay, MDA-MB-231 cells; conditions: for IC50: MDA-MB-231 triple negative breast cancer cells, CTG viability
# Procedure: as §1
Compound,IC50 (Ishikawa cell line) [µM],IC50 (MCF-7 cell line) [µM],IC50 (MDA-MB-231 cell line) [µM],IC50 (Ishikawa cell line; Homo sapiens) [µM],activity compared to Tamoxifen and 4-Hydroxytamoxifen (Ishikawa cell line; Ishikawa cell line),"IC50 (MCF-7 cell line; Homo sapiens, MCF7) [µM]",activity compared to Tamoxifen and 4-Hydroxytamoxifen (MCF-7 cell line; MCF-7 cell line),IC50 (MDA-MB-231 cell line; Homo sapiens) [µM],activity compared to Tamoxifen and 4-Hydroxytamoxifen (MDA-MB-231 cell line; MDA-MB-231 cell line)
4-Hydroxytamoxifen [reference compound],26.4,6.78,23.1,–,–,–,–,–,–
"CCC1=CCCN(NC(=O)c2ccc(I)cc2)C1 [EH-1-40, N-(4-iodobenzoylamino)-5-ethyl-1,2,3,6-tetrahydropyridine]",–,–,–,2.93,better activity,1.25,better activity,5.67,better activity
